Reference: patent US12104180B2, “Enzyme with acyl transfer function and application thereof” (OCEAN UNIVERSITY OF CHINA, priority 2020, dated 2024)
Where a chain is given by its changes, count along the chain named. Names and notes keep the numbering of the source.

Key:
Staphylococcus aureus = conditions: cited from earlier work
Pyricularia oryzae = conditions: cited from earlier work
Alternaria alternata = conditions: cited from earlier work
[1] = system: methicillin-resistant Staphylococcus aureus; conditions: cited from earlier work
[2] = system: vancomycin-resistant Enterococci; conditions: cited from earlier work
[3] = system: Burkholderia cepacia varieties; conditions: cited from earlier work
HIV virus = conditions: cited from earlier work
[4] = system: mammalian herpes simplex virus; conditions: cited from earlier work
[5] = system: B1-F10 murine melanoma cells; conditions: cited from earlier work
[6] = assay type: biochemical; conditions: 30° C., 2 h, substrate Macrolactin A

For Macrolactin B, the “inhibition of Staphylococcus aureus” value (Staphylococcus aureus) is given as “inhibit”, the “effect on plant pathogenic fungus Pyricularia oryzae” value (Pyricularia oryzae) is given as “obvious effects” and the “effect on plant pathogenic fungus Alternaria alternata” value (Alternaria alternata) is given as “obvious effects”.

For Macrolactin T, the “inhibition of Staphylococcus aureus” value (Staphylococcus aureus) is listed as “inhibit”, the “effect on plant pathogenic fungus Pyricularia oryzae” value (Pyricularia oryzae) is listed as “obvious effects” and the “effect on plant pathogenic fungus Alternaria alternata” value (Alternaria alternata) is listed as “obvious effects”.

For `CC1CCCC=CC=CC(O)CC(O)CC=CC=CC(OC(=O)CC(=O)O)CC=CC=CC(=O)O1` (centres unmarked) [7-O-malonyl Macrolactin A], the “inhibition of methicillin-resistant Staphylococcus aureus” value [1] is given as “can sufficiently inhibit”, the “inhibition of vancomycin-resistant Enterococci” value [2] is given as “can sufficiently inhibit” and the “inhibition of Burkholderia cepacia varieties” value [3] is given as “can sufficiently inhibit”.

In the case of `C[C@@H]1CCC/C=C/C=C/[C@H](O)C[C@@H](O)C/C=C\C=C\[C@@H](O)C/C=C/C=C\C(=O)O1` [Macrolactin A], the “protection of lymphocytes through inhibiting HIV virus” value (HIV virus) is listed as “can protect lymphocytes”, the “inhibition of mammalian herpes simplex virus” value [4] is listed as “can inhibit” and the “inhibition of B1-F10 murine melanoma cells” value [5] is listed as “can inhibit”.

B1: wild-type BmmI protein: acyltransferase BmmI from marine-derived Bacillus methylotrophicus B-9987, sequence SEQ ID NO:1 (protein)
chain: MKQTISNPAFDMKQINALNGHYQTMIDNGDLQCASYMMSRGGEVFAAESLGEFTGGQKEKQTFQLDTIREIGSLTKVFTAVAVMQLVEKGLLDLKMPVKLILPAFDKPGFGEIKILHLLTHTAGLSFELDIQKAEGIDLTNEEEWINYLVSTPLEYGVDEAWNYSRTGFVILGIIISKVTGVSYEQYVTKHIIEALGLERTYFYVPDTLKEEVCVISEHECVQLEKSHHPYFPNKATSGLYSSLRDIWKLAEMFRNKGRLKDKKLLGRKTVEAMLRNQIKPGLPFYFFGAPREEGGFGLGINLWPAGDHYFMTEGTFSHLGMGWCGMFSDPAEDFTYVFFTPISEFHPHAVLTPLNIVWAGIE
modifications: bmmI acyltransferase protease sequence
With B1 the “acyl donors recognized (side chain length)” value ([6]; FIG. 7) was “malonyl-CoA (C3), succinyl-CoA (C4), glutaryl-CoA (C5) and hexanedioyl-CoA (C6)”.

B2: R166G (protein)
chain: B1 chain with R166G
modifications: mutant protein R166G amino acid sequence
For B2, the “catalytic efficiency towards glutaryl-CoA, hexanedioyl-CoA, acetyl-CoA, and acetyl-CoA” value ([6]; compared with wild type towards malonyl-CoA) was “equivalent to that of the wild-type protein towards malonyl-CoA”.
